# Experimental data published in patent US20160262390A1, “FIELD APPLICATION OF SUGARS TO INCREASE CROP YIELD” (Minn-Dak Farmers Cooperative, priority 2015, published 2016).
# How the values were obtained:
# [1] = test system: sugarbeets; test: Pre-planting sugar application on sugarbeets, Foxhome; format: in vivo, sugarbeet; settings: for Recoverable Sugar Yield / Recoverable Sugar Yield Increase Compared to Check Average / Sugarbeet Yield: MN; for number of treatments showing yield improvement compared to check average: six rates (25-250 pounds/Acre) per sugar, thirty in all
# Method: (§1) The field trials were conducted simultaneously in two different planting locations for each of the crops. One location was near the community of Foxhome in Wilkin County, Minnesota (hereafter referred to as “Foxhome”) while the second location was near the community of Hickson in Cass County, North Dakota (hereafter referred to as “Hickson”). The Foxhome and Hickson locations are on opposite sides of the Red River along the border of Minnesota and North Dakota and separated by a distance exceeding 40 miles. Generally, the Foxhome location has heavier clay loam soil conditions while Hickson has sandy loam soil conditions.
# (§2) At each of the Foxhome and Hickson locations, a total of thirty two (32) treatments were conducted for each crop (sugarbeets, soybeans, corn, wheat). Each treatment was replicated four times arranged in a Randomized Complete Block (RCB) Design in the same field. Each replication consisted of a plot measuring twenty five (25) feet in length and eleven (11) feet in width. In selecting the particular seed types for evaluation, popular commercial varieties to the region were utilized. For the row crops (sugarbeets, soybeans, corn) each replication included a width of six (6) rows with twenty two (22) inch row spacing and having a row length of twenty five (25) feet. The wheat was planted in accordance with standard commercial practices. To reduce/eliminate any treatment impacts between adjacent plots for the crops, only the four (4) interior rows of each plot were treated and evaluated for row crops, while for wheat, only the interior 7.33 feet of each plot were treated and evaluated. With the exception of the treatment program applied to the individual plots, which will be discussed below, conventional commercial growing practices for each planting location were otherwise followed during the field trials.
# (§3) The treatment regimen at each location for each of the tested crops included two (2) untreated treatments (Treatments 31 and 32) in which no sugar was applied and constitute the control elements. […] Six (6) treatments (Treatments 13-18) included the liquid application of high fructose corn syrup (hereafter “HFCS”) at varying rates. Six treatments (Treatments 19-24) included the liquid application of dextrose (hereafter “LIQDEX”) at varying rates. Six (6) treatments (Treatments 25-30) included the application of powdered cellulose (hereafter “POWCEL”) at varying rates. For the sugar applied in a solid form, granulated or powdered, field application was conducted via conventional broadcast spreading. For the sugar applied in a liquid form, a liquid concentrate was mixed and diluted with water in a tank and a conventional sprayer was configured such that the liquid was sprayed so as to have the same sugar equivalent (measured in pounds/per acre) as the sugar in solid form. Regardless of whether the sugar was applied as a solid or liquid, the sugar was applied directly onto the soil before spring tillage, lightly worked into the ground and followed by planting of the crop seed in the treated ground. A summary of application rates for each plot treatments are contained in Table 7 below and were used consistently with each of the crops (sugarbeets, soybeans, corn, wheat).
# To test the impact of pre-planting application rates and sugar source on sugarbeets, identical field trials using Crystal® brand ACH 260 sugarbeet seed were conducted at the Foxhome and Hickson locations. Planting of the sugarbeet seed and harvest of the sugarbeets were conducted on as close to the same dates as practical so as to have essentially the same length growing season.
# [2] = test system: corn; test: Pre-planting sugar application on corn, Foxhome; format: in vivo; settings: for Yield / Yield Increase Compared to Check Average: MN; for number of treatments showing yield improvement compared to check average: six rates (25-250 pounds/Acre) per sugar, thirty in all
# Method: as §1
# as §2, with “trials. While the individual plots at the same location, Hickson or Foxhome, experienced essentially the same growing conditions throughout the season, there were various differences associated with localized precipitation, general growing conditions, soil classification and the like, which contributed to performance differences between the Hickson and Foxhome locations.” for “trials.”
# as §3
# To test the impact of pre-planting application rates and sugar source on corn, identical field trials using Peterson Farms brand corn seed were conducted at the Foxhome and Hickson locations. Planting of the corn seed and harvest of the corn were conducted on the same dates so as to have essentially the same growing season. […]
# [3] = test system: sugarbeets; test: Pre-planting sugar application on sugarbeets, Hickson; format: in vivo, sugarbeet; settings: for Recoverable Sugar Yield / Recoverable Sugar Yield Increase Compared to Check Average / Sugarbeet Yield: ND; for number of treatments showing negative yield benefits compared to check average: six rates per sugar
# Method: as §1
# as §2, with “trials. While the individual plots at the same location, Hickson or Foxhome, experienced essentially the same growing conditions throughout the season, there were various differences associated with localized precipitation, general growing conditions, soil classification and the like, which contributed to performance differences between the Hickson and Foxhome locations.” for “trials.”
# as §3
# To test the impact of pre-planting application rates and sugar source on sugarbeets, identical field trials using Crystal® brand ACH 260 sugarbeet seed were conducted at the Foxhome and Hickson locations. Planting of the sugarbeet seed and harvest of the sugarbeets were conducted on as close to the same dates as practical so as to have essentially the same length growing season. […]
structure (smiles),measurement,setting,value
"OC[C@H]1O[C@@](CO)(O[C@H]2O[C@H](CO)[C@@H](O)[C@H](O)[C@H]2O)[C@@H](O)[C@@H]1O [GS, sucrose]",Recoverable Sugar Yield,[1]; pre-planting 25 pounds/Acre,8856 Pounds/Acre
same,Recoverable Sugar Yield Increase Compared to Check Average,[1]; pre-planting 25 pounds/Acre,3.25%
same,Sugarbeet Yield,[1]; pre-planting 25 pounds/Acre,32.03 Tons/Acre
same,Recoverable Sugar Yield,[1]; pre-planting 50 pounds/Acre,8707 Pounds/Acre
same,Recoverable Sugar Yield Increase Compared to Check Average,[1]; pre-planting 50 pounds/Acre,1.52%
same,Sugarbeet Yield,[1]; pre-planting 50 pounds/Acre,32.27 Tons/Acre
same,Recoverable Sugar Yield,[1]; pre-planting 100 pounds/Acre,8100 Pounds/Acre
same,Recoverable Sugar Yield Increase Compared to Check Average,[1]; pre-planting 100 pounds/Acre,−5.56%
same,Sugarbeet Yield,[1]; pre-planting 100 pounds/Acre,30.85 Tons/Acre
same,Recoverable Sugar Yield,[1]; pre-planting 150 pounds/Acre,9080 Pounds/Acre
same,Recoverable Sugar Yield Increase Compared to Check Average,[1]; pre-planting 150 pounds/Acre,5.86%
same,Sugarbeet Yield,[1]; pre-planting 150 pounds/Acre,31.94 Tons/Acre
same,Recoverable Sugar Yield,[1]; pre-planting 200 pounds/Acre,8345 Pounds/Acre
same,Recoverable Sugar Yield Increase Compared to Check Average,[1]; pre-planting 200 pounds/Acre,−2.70%
same,Sugarbeet Yield,[1]; pre-planting 200 pounds/Acre,30.69 Tons/Acre
same,Recoverable Sugar Yield,[1]; pre-planting 250 pounds/Acre,9002 Pounds/Acre
same,Recoverable Sugar Yield Increase Compared to Check Average,[1]; pre-planting 250 pounds/Acre,4.96%
same,Sugarbeet Yield,[1]; pre-planting 250 pounds/Acre,31.80 Tons/Acre
same,number of treatments showing yield improvement compared to check average,[1],four of the six
same,Yield,[2]; pre-planting 25 pounds/Acre,271.62 Bushels/Acre
same,Yield Increase Compared to Check Average,[2]; pre-planting 25 pounds/Acre,2.20%
same,Yield,[2]; pre-planting 50 pounds/Acre,272.13 Bushels/Acre
same,Yield Increase Compared to Check Average,[2]; pre-planting 50 pounds/Acre,2.40%
same,Yield,[2]; pre-planting 100 pounds/Acre,274.80 Bushels/Acre
same,Yield Increase Compared to Check Average,[2]; pre-planting 100 pounds/Acre,3.40%
same,Yield,[2]; pre-planting 150 pounds/Acre,263.34 Bushels/Acre
same,Yield Increase Compared to Check Average,[2]; pre-planting 150 pounds/Acre,−0.91%
same,Yield,[2]; pre-planting 200 pounds/Acre,264.61 Bushels/Acre
same,Yield Increase Compared to Check Average,[2]; pre-planting 200 pounds/Acre,−0.43%
same,Yield,[2]; pre-planting 250 pounds/Acre,260.71 Bushels/Acre
same,Yield Increase Compared to Check Average,[2]; pre-planting 250 pounds/Acre,−1.90%
same,number of treatments showing yield improvement compared to check average,[2],three of the six
same,Recoverable Sugar Yield,[3]; pre-planting 25 pounds/Acre,9560 Pounds/Acre
same,Recoverable Sugar Yield Increase Compared to Check Average,[3]; pre-planting 25 pounds/Acre,−2.54%
same,Sugarbeet Yield,[3]; pre-planting 25 pounds/Acre,32.73 Tons/Acre
same,Recoverable Sugar Yield,[3]; pre-planting 50 pounds/Acre,10509 Pounds/Acre
same,Recoverable Sugar Yield Increase Compared to Check Average,[3]; pre-planting 50 pounds/Acre,7.14%
same,Sugarbeet Yield,[3]; pre-planting 50 pounds/Acre,35.37 Tons/Acre
same,Recoverable Sugar Yield,[3]; pre-planting 100 pounds/Acre,9360 Pounds/Acre
same,Recoverable Sugar Yield Increase Compared to Check Average,[3]; pre-planting 100 pounds/Acre,−4.58%
same,Sugarbeet Yield,[3]; pre-planting 100 pounds/Acre,31.94 Tons/Acre
same,Recoverable Sugar Yield,[3]; pre-planting 150 pounds/Acre,9877 Pounds/Acre
same,Recoverable Sugar Yield Increase Compared to Check Average,[3]; pre-planting 150 pounds/Acre,0.69%
same,Sugarbeet Yield,[3]; pre-planting 150 pounds/Acre,32.34 Tons/Acre
same,Recoverable Sugar Yield,[3]; pre-planting 200 pounds/Acre,9426 Pounds/Acre
same,Recoverable Sugar Yield Increase Compared to Check Average,[3]; pre-planting 200 pounds/Acre,−3.90%
same,Sugarbeet Yield,[3]; pre-planting 200 pounds/Acre,31.37 Tons/Acre
same,Recoverable Sugar Yield,[3]; pre-planting 250 pounds/Acre,9587 Pounds/Acre
same,Recoverable Sugar Yield Increase Compared to Check Average,[3]; pre-planting 250 pounds/Acre,−2.26%
same,Sugarbeet Yield,[3]; pre-planting 250 pounds/Acre,30.7 Tons/Acre
same,number of treatments showing negative yield benefits compared to check average,[3],four of the six
"OC[C@H]1O[C@@](CO)(O[C@H]2O[C@H](CO)[C@@H](O)[C@H](O)[C@H]2O)[C@@H](O)[C@@H]1O [LIQSUC, sucrose]",Recoverable Sugar Yield,[1]; pre-planting 25 pounds/Acre,8629 Pounds/Acre
same,Recoverable Sugar Yield Increase Compared to Check Average,[1]; pre-planting 25 pounds/Acre,0.61%
same,Sugarbeet Yield,[1]; pre-planting 25 pounds/Acre,32.17 Tons/Acre
same,Recoverable Sugar Yield,[1]; pre-planting 50 pounds/Acre,8627 Pounds/Acre
same,Recoverable Sugar Yield Increase Compared to Check Average,[1]; pre-planting 50 pounds/Acre,0.58%
same,Sugarbeet Yield,[1]; pre-planting 50 pounds/Acre,31.21 Tons/Acre
same,Recoverable Sugar Yield,[1]; pre-planting 100 pounds/Acre,8592 Pounds/Acre
same,Recoverable Sugar Yield Increase Compared to Check Average,[1]; pre-planting 100 pounds/Acre,0.17%
same,Sugarbeet Yield,[1]; pre-planting 100 pounds/Acre,31.79 Tons/Acre
same,Recoverable Sugar Yield,[1]; pre-planting 150 pounds/Acre,8646 Pounds/Acre
same,Recoverable Sugar Yield Increase Compared to Check Average,[1]; pre-planting 150 pounds/Acre,0.80%
same,Sugarbeet Yield,[1]; pre-planting 150 pounds/Acre,30.26 Tons/Acre
same,Recoverable Sugar Yield,[1]; pre-planting 200 pounds/Acre,8473 Pounds/Acre
same,Recoverable Sugar Yield Increase Compared to Check Average,[1]; pre-planting 200 pounds/Acre,−1.21%
same,Sugarbeet Yield,[1]; pre-planting 200 pounds/Acre,30.23 Tons/Acre
same,Recoverable Sugar Yield,[1]; pre-planting 250 pounds/Acre,8424 Pounds/Acre
same,Sugarbeet Yield,[1]; pre-planting 250 pounds/Acre,31.04 Tons/Acre
same,number of treatments showing yield improvement compared to check average,[1],four of the six
same,Yield,[2]; pre-planting 25 pounds/Acre,264.82 Bushels/Acre
same,Yield Increase Compared to Check Average,[2]; pre-planting 25 pounds/Acre,−0.35%
same,Yield,[2]; pre-planting 50 pounds/Acre,274.43 Bushels/Acre
same,Yield Increase Compared to Check Average,[2]; pre-planting 50 pounds/Acre,3.26%
same,Yield,[2]; pre-planting 100 pounds/Acre,264.79 Bushels/Acre
same,Yield Increase Compared to Check Average,[2]; pre-planting 100 pounds/Acre,−0.36%
same,Yield,[2]; pre-planting 150 pounds/Acre,270.66 Bushels/Acre
same,Yield Increase Compared to Check Average,[2]; pre-planting 150 pounds/Acre,1.84%
same,Yield,[2]; pre-planting 200 pounds/Acre,271.85 Bushels/Acre
same,Yield Increase Compared to Check Average,[2]; pre-planting 200 pounds/Acre,2.29%
same,Yield,[2]; pre-planting 250 pounds/Acre,263.78 Bushels/Acre
same,Yield Increase Compared to Check Average,[2]; pre-planting 250 pounds/Acre,−0.75%
same,number of treatments showing yield improvement compared to check average,[2],three of the six
same,Recoverable Sugar Yield,[3]; pre-planting 25 pounds/Acre,9363 Pounds/Acre
same,Recoverable Sugar Yield Increase Compared to Check Average,[3]; pre-planting 25 pounds/Acre,−4.55%
same,Sugarbeet Yield,[3]; pre-planting 25 pounds/Acre,28.83 Tons/Acre
same,Recoverable Sugar Yield,[3]; pre-planting 50 pounds/Acre,10217 Pounds/Acre
same,Recoverable Sugar Yield Increase Compared to Check Average,[3]; pre-planting 50 pounds/Acre,4.16%
same,Sugarbeet Yield,[3]; pre-planting 50 pounds/Acre,32.05 Tons/Acre
same,Recoverable Sugar Yield,[3]; pre-planting 100 pounds/Acre,9216 Pounds/Acre
same,Recoverable Sugar Yield Increase Compared to Check Average,[3]; pre-planting 100 pounds/Acre,−6.05%
same,Sugarbeet Yield,[3]; pre-planting 100 pounds/Acre,28.83 Tons/Acre
same,Recoverable Sugar Yield,[3]; pre-planting 150 pounds/Acre,9089 Pounds/Acre
same,Recoverable Sugar Yield Increase Compared to Check Average,[3]; pre-planting 150 pounds/Acre,−7.34%
same,Sugarbeet Yield,[3]; pre-planting 150 pounds/Acre,31.95 Tons/Acre
same,Recoverable Sugar Yield,[3]; pre-planting 200 pounds/Acre,9998 Pounds/Acre
same,Recoverable Sugar Yield Increase Compared to Check Average,[3]; pre-planting 200 pounds/Acre,1.93%
same,Sugarbeet Yield,[3]; pre-planting 200 pounds/Acre,32.35 Tons/Acre
same,Recoverable Sugar Yield,[3]; pre-planting 250 pounds/Acre,9627 Pounds/Acre
same,Recoverable Sugar Yield Increase Compared to Check Average,[3]; pre-planting 250 pounds/Acre,−1.86%
same,Sugarbeet Yield,[3]; pre-planting 250 pounds/Acre,32.29 Tons/Acre
same,number of treatments showing negative yield benefits compared to check average,[3],four of the six
